Test results as given in US20020182587A1, “Methods and compositions for the treatment and prevention of smooth muscle cell proliferation” (priority 2001, published 2002).

Assays:
[1] = tested on: neointima formation following balloon catheter-induced injury of the common carotid arteries; assay: Neointima formation after balloon catheter-induced injury of the common carotid arteries; format: in vivo, male Wistar rats
Description: Two of test compounds discovered using the methods of the present invention, particularly shown in Example VI, compositions RUS 3052 and RUS 3108, were evaluated for efficacy in the reduction of neointima formation following balloon catheter-induced injury of the common carotid arteries of male Wistar rats. Thirty-two rats were divided into groups of eight animals per group: two test compound groups and two control groups. The two control groups were the positive control, 5 mg/kg probucol, and the negative control, the vehicle for the test compositions and the positive control probucol. […] The vehicle solution was 10% DMSO, 10% cremophor, 20% propylene glycol in water for injection. Test compositions RUS 3052 and RUS 3108 were initially administered at 5 mg/kg up to and including the day of surgery. Starting the day after surgery, until the end of the study, the dosage of all compositions was lowered to 1 mg/kg. The test compositions were prepared by combining 5 mg of the test compound or control with 100 μl DMSO, 100 μl cremophor EL, and 200 μl propylene glycol with intermittent mixing using a cyclomixer. Water for injection was added in 100 μl aliquots to give a final volume of 1 ml.
The test compositions and controls were administered daily by intraperitoneal injection starting 72 hours prior to the surgical procedure and continued until necropsy, 14 days after the procedure. One animal from each of the four groups underwent the surgical procedure each day using a #2F Fogarty embolectomy catheter. An embolectomy catheter was introduced into the right external carotid artery and retrogradely passed to the aortic arch through the common carotid artery. The balloon was inflated with sterile saline and then pulled to the common carotid-external carotid bifurcation. […]
Fourteen days post-surgery, the animals of Example VII were euthanized and the damaged right carotid arteries were collected, sectioned and stained with modified elastin-trichrome, and then analyzed for neointima formation that was quantified by histomorphometric analysis. […]

human aortic SMC = assay: (3H)thymidine DNA synthesis / proliferation of sub-confluent SMC; format: cell-based; settings: purified perlecan added to 10% serum-containing medium, 24 h
Description: Smooth muscle cells reach quiescence during serum starvation resulting in a blockade of DNA synthesis. […] The cells used in this Example and the other examples herein were human aortic SMC, grown in basal medium supplemented with growth factors, bFGF and epidermal growth factor (EGF) (Clonetics, San Diego, Calif.).
The addition of perlecan to serum-containing medium inhibited SMC growth by 70% (FIG. 2). Sub-confluent SMC (40-50% confluence) were incubated in serum-free medium or 10% serum-containing medium with or without purified perlecan for 24 h. DNA synthesis was then determined by incubating cells for another 5 h in medium containing (^3H)thymidine. TCA precipitable (DNA) thymidine counts were determined and expressed as percentage of DNA synthesis in cells grown in 10%FBS.
Perlecan, induced in serum-free conditions, was required for the blockade of DNA synthesis observed in serum-free conditions. The anti-perlecan antibody of Example I was used to block perlecan. Sub-confluent levels of SMC (40-50% confluence) were incubated in serum-free medium containing 0, 5, 10 and 20 μg of mouse IgG or anti-perlecan IgG for 24 hours. DNA synthesis was then determined by incubating cells for another 5 hours in medium containing (^3H)thymidine. TCA precipitable (DNA) (^3H)thymidine counts were determined and expressed as percentage of DNA synthesis in cells grown in 10% FBS. […]

## CC(C)(Sc1cc(C(C)(C)C)c(O)c(C(C)(C)C)c1)Sc1cc(C(C)(C)C)c(O)c(C(C)(C)C)c1 [Probucol, probucol]
[1]; rat, i.p. daily, 5 mg/kg up to surgery then 1 mg/kg, 14 days post-surgery, all sections within group
  IA/MA Average ± STD (n), Based on Section Averages: 0.71 ± 0.30 (9)
[1]; rat, i.p. daily, 5 mg/kg up to surgery then 1 mg/kg, 14 days post-surgery, sections with IA/MA > 0.0915
  IA/MA Average ± STD (n), Based on Animal Averages: 0.65 ± 0.25 (3)
[1]; significance set at p<0.20
  reduction of neointima formation in comparison to the negative control group: effective in significantly reducing neointima formation

## perlecan
Human aortic SMC
  inhibition of SMC growth (DNA synthesis, percentage of cells grown in 10% FBS): 70%
